Tested on: Dkk1-LRP5-TCF-Luciferase
Assay: Functional Dkk1-LRP5-TCF-Luciferase Assay in U2OS Cells
Details: for EC50 / fold induction at 2 µM / fold induction at 20 µM: Homo sapiens, U2OS; for fold induction at 2 µM: read-out: B = TCF ACTIVITY/DMSO CONTROL Fold induction @ 2.0 uM, 2.0 uM compound; for fold induction at 20 µM: read-out: C = TCF ACTIVITY/DMSO CONTROL Fold induction @ 20.0 uM, 20.0 uM compound; for A = MAX FOLD Induction/DMSO CONTROL: maximum fold induction over DMSO control

Row | EC50 [µM] | A = MAX FOLD Induction/DMSO CONTROL [fold] | C = TCF ACTIVITY/DMSO CONTROL Fold induction @ 20.0 uM (20.0 uM compound, 20 µM) [fold] | Structure (SMILES) | fold induction at 2 µM | fold induction at 20 µM
1 | 3.3 | 2.940 |  | CS(=O)(=O)N[C@H]1CC[C@H](Nc2nccc(-c3ccc4ccccc4c3)n2)CC1 [N-(trans-4-{[4-(2-naphthyl)pyrimidin-2-yl]amino}cyclohexyl)methanesulfonamide] | 1.79 | 2.38
2 |  |  |  | CC(=O)NCC1CN(c2nccc(-c3ccc4ccccc4c3)n2)C1 [N-({1-[4-(2-naphthyl)pyrimidin-2-yl]azetidin-3-yl}methyl)acetamide] | 0.69 | 1.76
3 |  |  |  | CS(=O)(=O)NCC1CN(c2nccc(-c3ccc4ccccc4c3)n2)C1 [N-({1-[4-(2-naphthyl)pyrimidin-2-yl]azetidin-3-yl}methyl)methanesulfonamide] | 1.1 | 1.38
4 |  |  |  | NC(=O)NCC1CN(c2nccc(-c3ccc4ccccc4c3)n2)C1 [N-({1-[4-(2-naphthyl)pyrimidin-2-yl]azetidin-3-yl}methyl)urea] | 1.46 | 1.64
5 | 1.9 | 2.273 | 2.500 | CC(=O)NCC1CCN(c2nccc(-c3ccc4ccccc4c3)n2)CC1 [N-({1-[4-(2-naphthyl)pyrimidin-2-yl]piperidin-4-yl}methyl)acetamide] | 1.63 | 2.71
6 |  |  |  | O=C(NCC1CCN(c2nccc(-c3ccc4ccccc4c3)n2)CC1)c1ccccc1 [N-({1-[4-(2-naphthyl)pyrimidin-2-yl]piperidin-4-yl}methyl)benzamide] | 1.69 | 
7 | 3.3 | 4.200 |  | CCNCC1CCN(c2nccc(-c3ccc4ccccc4c3)n2)CC1 [N-({1-[4-(2-naphthyl)pyrimidin-2-yl]piperidin-4-yl}methyl)ethanamine] | 1.33 | 0.01
8 |  |  |  | N=C(N)NCC1CCN(c2nccc(-c3ccc4ccccc4c3)n2)CC1 [N-({1-[4-(2-naphthyl)pyrimidin-2-yl]piperidin-4-yl}methyl)guanidine] | 1.27 | 0.02
9 |  |  |  | CS(=O)(=O)NCC1CCN(c2nccc(-c3ccc4ccccc4c3)n2)CC1 [N-({1-[4-(2-naphthyl)pyrimidin-2-yl]piperidin-4-yl}methyl)methanesulfonamide] | 1.12 | 0.48
10 |  |  |  | c1cnc(NCC2CCN(c3nccc(-c4ccc5ccccc5c4)n3)CC2)nc1 [N-({1-[4-(2-naphthyl)pyrimidin-2-yl]piperidin-4-yl}methyl)pyrimidin-2-amine] | 1.28 | 1.48
11 |  |  |  | O=C(NCC1CCN(c2nccc(-c3ccc4ccccc4c3)n2)CC1)N1CCCC1 [N-({1-[4-(2-naphthyl)pyrimidin-2-yl]piperidin-4-yl}methyl)pyrrolidine-1-carboxamide] | 0.91 | 1.13
12 |  |  |  | NC(=O)NCC1CCN(c2nccc(-c3ccc4ccccc4c3)n2)CC1 [N-({1-[4-(2-naphthyl)pyrimidin-2-yl]piperidin-4-yl}methyl)urea] | 1.29 | 1.18
13 |  |  |  | CC(=O)NCC1CCN(c2nccc(-c3ccc4ccccc4c3)n2)C1 (centres unmarked) [N-({1-[4-(2-naphthyl)pyrimidin-2-yl]pyrrolidin-3-yl}methyl)acetamide] | 0.95 | 1.5
14 |  |  |  | O=C(NCC1CCN(c2nccc(-c3ccc4ccccc4c3)n2)C1)c1ccccc1 (centres unmarked) [N-({1-[4-(2-naphthyl)pyrimidin-2-yl]pyrrolidin-3-yl}methyl)benzamide] | 1.06 | 1.03
15 |  |  |  | O=CNCC1CCN(c2nccc(-c3ccc4ccccc4c3)n2)C1 (centres unmarked) [N-({1-[4-(2-naphthyl)pyrimidin-2-yl]pyrrolidin-3-yl}methyl)formamide] | 1.09 | 1.68
16 |  |  |  | CS(=O)(=O)NCC1CCN(c2nccc(-c3ccc4ccccc4c3)n2)C1 (centres unmarked) [N-({1-[4-(2-naphthyl)pyrimidin-2-yl]pyrrolidin-3-yl}methyl)methanesulfonamide] | 0.88 | 1.63
17 | 19.4 | 1.720 |  | NC(=O)NCC1CCN(c2nccc(-c3ccc4ccccc4c3)n2)C1 (centres unmarked) [N-({1-[4-(2-naphthyl)pyrimidin-2-yl]pyrrolidin-3-yl}methyl)urea] | 1.14 | 2.34
18 |  |  |  | Cc1ccc(S(=O)(=O)N2CC(CNc3nccc(-c4ccc5ccccc5c4)n3)C2)cc1 [N-({1-[(4-methylphenyl)sulfonyl]azetidin-3-yl}methyl)-4-(2-naphthyl)pyrimidin-2-amine] | 1.45 | 1.2
19 |  |  |  | Cc1ccc(S(=O)(=O)N2CCC(CNc3nccc(-c4ccc5ccccc5c4)n3)CC2)cc1 [N-({1-[(4-methylphenyl)sulfonyl]piperidin-4-yl}methyl)-4-(2-naphthyl)pyrimidin-2-amine] | 1.17 | 0.92
20 | 0.06 | 1.730 |  | CS(=O)(=O)N1CCC(Nc2nccc(-c3ccc4ccccc4c3)n2)CC1 [N-[1-(methylsulfonyl)piperidin-4-yl]-4-(2-naphthyl)pyrimidin-2-amine] | 2.24 | 1.54

Row | EC50 [µM] | A = MAX FOLD Induction/DMSO CONTROL [fold] | C = TCF ACTIVITY/DMSO CONTROL Fold induction @ 20.0 uM (20.0 uM compound, 20 µM) [fold] | Structure (SMILES) | fold induction at 2 µM | fold induction at 20 µM
21 |  |  |  | O=C(N1CCOCC1)N1CCC(Nc2nccc(-c3ccc4ccccc4c3)n2)CC1 [N-[1-(morpholin-4-ylcarbonyl)piperidin-4-yl]-4-(2-naphthyl)pyrimidin-2-amine] | 1.03 | 1.07
22 | 16.1 | 6.080 |  | c1ccc2cc(-c3ccnc(NC4CCCNCC4)n3)ccc2c1 (centres unmarked) [N-[4-(2-naphthyl)pyrimidin-2-yl]azepan-4-amine] | 1.11 | 4.87
23 |  |  |  | CC(=O)N1CC(CNc2nccc(-c3ccc4ccccc4c3)n2)C1 [N-[(1-acetylazetidin-3-yl)methyl]-4-(2-naphthyl)pyrimidin-2-amine] | 1.8 | 
24 |  |  |  | CC(=O)N1CCC(CNc2nccc(-c3ccc4ccccc4c3)n2)CC1 [N-[(1-acetylpiperidin-4-yl)methyl]-4-(2-naphthyl)pyrimidin-2-amine] | 1.02 | 1.33
25 |  |  |  | O=C(c1ccccc1)N1CC(CNc2nccc(-c3ccc4ccccc4c3)n2)C1 [N-[(1-benzoylazetidin-3-yl)methyl]-4-(2-naphthyl)pyrimidin-2-amine] | 1.5 | 
26 |  |  |  | O=C(c1ccccc1)N1CCC(CNc2nccc(-c3ccc4ccccc4c3)n2)CC1 [N-[(1-benzoylpiperidin-4-yl)methyl]-4-(2-naphthyl)pyrimidin-2-amine] | 1.44 | 0.627
27 |  |  |  | c1ccc(CN2CCC(CNc3nccc(-c4ccc5ccccc5c4)n3)CC2)cc1 [N-[(1-benzylpiperidin-4-yl)methyl]-4-(2-naphthyl)pyrimidin-2-amine] |  | 1.49
28 | 3.94 | 3.450 |  | CCN1CCC(CNc2nccc(-c3ccc4ccccc4c3)n2)CC1 [N-[(1-ethylpiperidin-4-yl)methyl]-4-(2-naphthyl)pyrimidin-2-amine] | 1.5 | 0.908
29 | 3.55 | 3.380 |  | CS(=O)(=O)N1CC[C@@H](Nc2nccc(-c3ccc4ccccc4c3)n2)C1 [N-[(3R)-1-(methylsulfonyl)pyrrolidin-3-yl]-4-(2-naphthyl)pyrimidin-2-amine] |  | 3.46
30 |  | 1.340 |  | O=C(N1CCOCC1)N1CC[C@@H](Nc2nccc(-c3ccc4ccccc4c3)n2)C1 [N-[(3R)-1-(morpholin-4-ylcarbonyl)pyrrolidin-3-yl]-4-(2-naphthyl)pyrimidin-2-amine] |  | 2.35
31 | 14.2 | 2.980 |  | CC(=O)N1CC[C@@H](Nc2nccc(-c3ccc4ccccc4c3)n2)C1 [N-[(3R)-1-acetylpyrrolidin-3-yl]-4-(2-naphthyl)pyrimidin-2-amine] | 1.21 | 2.06
32 |  |  |  | O=C(c1ccccc1)N1CC[C@@H](Nc2nccc(-c3ccc4ccccc4c3)n2)C1 [N-[(3R)-1-benzoylpyrrolidin-3-yl]-4-(2-naphthyl)pyrimidin-2-amine] | 1.84 | 
33 | 2.9 | 2.585 |  | CS(=O)(=O)N1CC[C@H](Nc2nccc(-c3ccc4ccccc4c3)n2)C1 [N-[(3S)-1-(methylsulfonyl)pyrrolidin-3-yl]-4-(2-naphthyl)pyrimidin-2-amine] | 1.41 | 2.26
34 |  |  |  | O=C(N1CCOCC1)N1CC[C@H](Nc2nccc(-c3ccc4ccccc4c3)n2)C1 [N-[(3S)-1-(morpholin-4-ylcarbonyl)pyrrolidin-3-yl]-4-(2-naphthyl)pyrimidin-2-amine] | 1.12 | 1.94
35 |  |  |  | CC(=O)N1CC[C@H](Nc2nccc(-c3ccc4ccccc4c3)n2)C1 [N-[(3S)-1-acetylpyrrolidin-3-yl]-4-(2-naphthyl)pyrimidin-2-amine] | 1.15 | 1.66
36 |  |  |  | O=C(c1ccccc1)N1CC[C@H](Nc2nccc(-c3ccc4ccccc4c3)n2)C1 [N-[(3S)-1-benzoylpyrrolidin-3-yl]-4-(2-naphthyl)pyrimidin-2-amine] | 1.23 | 
37 |  |  |  | CN(c1nccc(-c2ccc3ccccc3c2)n1)[C@H]1CC[C@@H](CN)CC1 [N-[cis-4-(aminomethyl)cyclohexyl]-N-methyl-4-(2-naphthyl)pyrimidin-2-amine] | 2.7 | 
38 |  |  |  | CN(c1nccc(-c2ccc3ccccc3c2)n1)[C@H]1CC[C@H](CN)CC1 [N-[trans-4-(aminomethyl)cyclohexyl]-N-methyl-4-(2-naphthyl)pyrimidin-2-amine] | 1.4 | 
39 |  |  |  | c1ccc(CNc2nccc(-c3ccc4ccccc4c3)n2)cc1 [N-benzyl-4-(2-naphthyl)pyrimidin-2-amine] | 1.71 | 
